Legend:
NRG1 = test: Western blot of NRG1 level in treated A172 cells; format: cell-based, human
Protocol: (§1) A172 cells were cultured in DMEM supplemented with 10% heat-inactivated fetal bovine serum (FBS; Hyclone, Logan, Utah), 100 U/mL penicillin and 0.1 mg/mL streptomycin (Invitrogen, Carlsbad, Calif.) at 37° C. in a humidified incubator with 5% CO2 and 95% air.
(§2) The cells were lysed and the lysates were suspended in a RIPA buffer (50 mM HEPES (pH 7.4), 4 mM EDTA, 150 mM NaCl, 10 mM Na4P2O7, 100 mM NaF, 2 mM Na3VO4, 1% Triton X-100, 0.25% sodium deoxycholate, 50 mM 4-(2-aminoethyl) benzene sulfonylfluoride, 50 μg/mL leupeptin, and 20 μg/mL aprotinin). For each cell sample, 30˜50 μg of total protein, along with a molecular weight ladder were resolved on 8% a bis-tris polyacrylamide NuPAGE gels (90˜130 V, 2 hrs) via electrophoresis and then transferred onto a nitrocellulose membrane (Invitrogen) (550 mA, 90 min) The membrane was first blocked using phosphate buffered saline (PBS) with 5% dry skimmed milk powder for 1 hr at room temperature and then incubated at 4° C. in the presence of mouse anti-serotonin transporter antibody (MAB1564; Chemicon), rabbit anti-norepinephrine transporter antibody (AB2234; Millipore, Bedford, Mass.), or anti-β-actin antibody (MAB1501, Chemicon) overnight. The antibody was diluted in phosphate buffered saline containing 0.1% Tween-20 (PBST). Afterwards, the membrane was washed with PBST and then incubated with a peroxidase-conjugated secondary antibody in PBST. After being washed for several times, the membrane was subjected to the enhanced chemiluminescence (ECL) analysis, following the method described in Yeh et al., 2009, Glia, 57:454-464, using an ECL kit purchased from Santa Cruz Biotechnology and Kodak X-OMAT LS film (Eastman Kodak, Rochester, N.Y.).
(§3) A172 cells were cultured in the presence of serotonin at a concentration of 1, 3, 10, 30, or 100 μM. The levels of both NGR1 and ErbB4, the major receptor of NRG1 in the brain, in the treated A172 cells were examined by Western blot as described above at various time points (e.g., 2 hr, 4 hr, 8 hr, 12 hr, and 24 hr post treatment), using rabbit anti-NRG1 precursor antibody no. […]

ErbB4 = test: Western blot of ErbB4 level in treated A172 cells; format: cell-based, human
Protocol: as §1, §2, §3

[1] = test system: wild-type and NRG1+/- mice; test: Social withdrawal behavior evaluation; format: in vivo, mouse; parameters: key to social approach change score: score: +1/s social side, 0 center, -1 nonsocial; presence minus absence; settings: i.p. 30 min before testing; for social approach change score: NRG1+/- mice; for social approach change score, effect: wild-type mice, same doses
Source text: (§4) Transmembrane (TM)-domain NRG1 heterozygous mutant mice (129S5-Nrg1tm1Lex, ID#011745-UCD) were obtained from Mutant Mouse Regional Resource Centers (MMRRC) and backcrossed with B6 mice. NRG1^+/− mice and their wild-type littermates were generated by in-house mating of male NRG1^+/− mice and female C57BL/6 mice. Heterozygous crossing has been practiced for at least 7 generations to obtain animals with a homogeneous C57BL/6 genetic background except for the TM-mutated nrg1 gene locus. Mouse genotypes were determined by PCR analysis. Animals were housed (five per cage) under a 12-hr light/dark cycle (lights on from 8:00 a.m. to 8:00 p.m.) at constant room temperature and relative humidity with food and water available ad libitum. All experiments were started at 10-week-old period at weight of 25-30 g.
(§5) Before undergoing any behavioral test, animals were handled by an investigator for at least 3 days so that they became familiar with the investigator. The animals had been placed under laboratory conditions for at least 1 hr before each behavioral test.
The social withdrawal behavior evaluation study was performed following the method described in Sankoorikal et al., Biol. Psychiatry 59:415-423, 2006 with modifications. Briefly, this study was carried out in a behavioral testing apparatus containing two end chambers and one middle chamber. A clear Plexiglas cylinder was placed in each of the two end chambers, one being designated as “social side” (where stimulus to mice was introduced through the cylinder) and the other being designated as the “nonsocial side.” (where the cylinder is empty). Multiple holes (0.5 in diameter each) are evenly spaced over the surface of the two cylinders.
Each of the mice to be tested was housed individually for 3 days before the social withdrawal behavior evaluation study was performed. During the study, the response (i.e., social approach) of a test mouse to a novel (unfamiliar) “stimulus” was observed within 5 minutes after the mouse was exposed to the stimulus. A “social approach score” was calculated for each mouse according to the time it spent in each of the three chambers as follows: +1 for each second spent in the social side chamber, 0 for each second spent in the center chamber, and −1 for each second spent in the nonsocial side chamber. The “social approach change score” was calculated by subtracting the value of “social approach score in the absence of stimulus mouse” condition from the value for “presence of stimulus mouse” condition.

[2] = test system: wild-type and NRG1+/- mice; test: Forced swimming test; format: in vivo, mouse; settings: for effect on immobility time: i.p., desipramine 20, imipramine 15, venlafaxine 15 mg/kg; for immobility period: desipramine 20 mg/kg i.p.
Source text: as §4, §5
To perform the forced swimming test, each mouse, administered via intraperitoneal injection with either one of the above-listed serotonin transporter inhibitors or saline 30-60 minutes ago, was placed individually in a clear glass cylinder (height, 25 cm; diameter, 15 cm) containing water (depth: 15 cm; temperature: 26±1° C.). Its behavior was recorded by a video camera during a 6-min testing period. The duration of immobility was measured during the last 4 min after a 2-min habituation period.

[3] = male (FIG. 2 panel A), desipramine 20, imipramine 15, fluvoxamine 15, venlafaxine 15, duloxetine 20, escitalopram 30 mg/kg, saline −37.7±28.8
[4] = NRG1+/- mice, much greater than in wild-type
[5] = female, duloxetine 20, escitalopram 30 mg/kg, saline −60.4±40.2

SMILES	social approach change score [1, 3]	social approach change score, effect [1]	effect on immobility time [2, 4]	effect on immobility time ([2]; wild-type mice)	also measured
CCCN(CCC)C1CCc2cccc(O)c2C1 (centres unmarked) [8-OH DPAT, 8-hydroxy-N,N-dipropyl-2-aminotetralin]	–	–	–	–	level of NRG1 compared with untreated A172 cells (maximal effect) (NRG1; 0.3 μM, 4 hours): 1.44±0.12 fold; level of ErbB4 compared with untreated A172 cells (maximal effect) (ErbB4; 0.3 μM, 4 hours): 1.44±0.10 fold
COc1ccc(C(CN(C)C)C2(O)CCCCC2)cc1 (centres unmarked) [venlafaxine]	61.9±24.7	not significantly different	decreased	only slightly affected	–
CNCC[C@H](Oc1cccc2ccccc12)c1cccs1 [duloxetine]	78.7±28.5	not significantly different	–	–	social approach change score [1, 5]: 103.7±30.8
CN(C)CCCN1c2ccccc2CCc2ccccc21 [imipramine]	138.7±18.8	not significantly different	decreased	only slightly affected	–
COc1cc(CC(C)N)c(OC)cc1I (centres unmarked) [DOI]	–	–	–	–	effect on level of NRG1 (NRG1; 0.1-3 μM, 4 hours): did not show increased levels; effect on level of ErbB4 (ErbB4; 0.1-3 μM, 4 hours): did not show increased levels
NCCc1c[nH]c2ccc(O)cc12 [serotonin]	–	–	–	–	level of NRG1 compared to saline control (NRG1; serotonin 10 μM, p<0.05): 1.4±0.06 fold; level of ErbB4 compared to saline control (ErbB4; serotonin 10 μM, p<0.05): 1.7±0.1 fold
CNCCCN1c2ccccc2CCc2ccccc21 [desipramine]	122.7±31.0	not significantly different	decreased	only slightly affected	immobility ([2]; C57BL/6 wild-type mice, desipramine 50 mg/kg, saline 101.4±16.4 sec): 58.6 ± 11.0 s; immobility period ([2]; NRG1+/- mice, control NRG1+/- = 122.8%, p<0.01): 36.5±18.0%; immobility period ([2]; wild-type mice, control wild-type = 100.0%, p=0.24): 65.7±24.5%
COCCCC/C(=N\OCCN)c1ccc(C(F)(F)F)cc1 [fluvoxamine]	98.6±15.9	not significantly different	–	–	–
CN(C)CCC[C@@]1(c2ccc(F)cc2)OCc2cc(C#N)ccc21 [escitalopram]	175.3±60.4	not significantly different	–	–	social approach change score [1, 5]: 110.1±41.9

From US20110028453A1, “Treating Negative Symptoms of Schizophrenia Associated with Defective Neuregulin 1” (priority 2009, published 2011)
